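Assay format: 96-well plates, 48-hour exposure. At the GI50, growth is halved.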 Active and inactive are the calls of the source. Cut-off read from the data, not from the text of the source: active = GI50 up to about 1.1 µM and inactive = higher.
Tests used:
Assay in all cases: NCI-60 cell line screen, 48 h
A498 = system: A498
ACHN = system: ACHN
EKVX = system: EKVX
HCT-116 = system: HCT-116
HCT-15 = system: HCT-15
IGROV-1 = system: IGROV-1
LOX IMVI = system: LOX IMVI
MOLT-4 = system: MOLT-4
OVCAR-4 = system: OVCAR-4
OVCAR-5 = system: OVCAR-5
OVCAR-8 = system: OVCAR-8
SK-MEL-5 = system: SK-MEL-5
SK-OV-3 = system: SK-OV-3
SN12C = system: SN12C
SNB-19 = system: SNB-19
SNB-75 = system: SNB-75
TK-10 = system: TK-10
UACC-257 = system: UACC-257
UO-31 = system: UO-31
SF-268 = system: SF-268

| SMILES | GI50 (A498) | GI50 (ACHN) | GI50 (EKVX) | GI50 (HCT-116) | GI50 (HCT-15) | GI50 (IGROV-1) | GI50 (LOX IMVI) | GI50 (MOLT-4) | GI50 (OVCAR-4) | GI50 (OVCAR-5) | GI50 (OVCAR-8) | GI50 (SK-MEL-5) | GI50 (SK-OV-3) | GI50 (SN12C) | GI50 (SNB-19) | GI50 (SNB-75) | GI50 (TK-10) | GI50 (UACC-257) | GI50 (UO-31) | GI50 (SF-268) |
| --- | --- | --- | --- | --- | --- | --- | --- | --- | --- | --- | --- | --- | --- | --- | --- | --- | --- | --- | --- | --- |
| O=C(Nc1nnc(-c2ccccc2)o1)C(SC(=S)N1CCCCC1)c1ccccc1 (stereo not given) | 27.3 µM (inactive) | 15.1 µM (inactive) | 20.9 µM (inactive) | 13.4 µM (inactive) | 5.02 µM | 15.9 µM (inactive) | 4.16 µM (inactive) | 3.53 µM (inactive) | 30.5 µM (inactive) | 26.6 µM (inactive) | 26.5 µM (inactive) | 13.6 µM (inactive) | 28.4 µM (inactive) | 10.9 µM (inactive) | 32.1 µM (inactive) | 30.4 µM (inactive) | 56 µM (inactive) | 32.4 µM (inactive) | 8.79 µM (inactive) |  |
| CC(C)(C)c1cc(C2NC(=O)NC2=O)cc(C(C)(C)C)c1O (stereo not given) | > 100 µM (inactive) | > 100 µM (inactive) | > 100 µM (inactive) | 27.9 µM (inactive) | 93.3 µM | > 100 µM (inactive) | > 100 µM (inactive) | 39.5 µM (inactive) | > 100 µM (inactive) | > 100 µM (inactive) | 85.7 µM (inactive) | > 10 µM (inactive) | > 100 µM (inactive) |  | > 100 µM (inactive) | 29.4 µM (inactive) | 29 µM (inactive) |  | > 100 µM (inactive) | 64.6 µM (inactive) |
| COc1cc([C@@H]2c3cc4c(cc3C[C@H]3COC(=O)[C@@H]32)OCO4)cc2c1OCO2 [AUSTROBAILIGNAN 1] | < 0.01 µM (active) | < 0.0121 µM (active) | < 0.01 µM (active) | < 0.01 µM (active) | < 0.01 µM | < 0.01 µM (active) | < 0.01 µM (active) | < 0.01 µM (active) | 11.4 µM (inactive) | < 0.01 µM (active) | < 0.01 µM (active) | < 0.01 µM (active) | < 0.01 µM (active) | < 0.01 µM (active) | < 0.01 µM (active) | 0.0278 µM (active) | 1.99 µM (inactive) |  | < 0.01 µM (active) | < 0.01 µM (active) |
| O=C(Nc1ccc(F)cc1)C(=O)C(C1OC(=O)c2ccccc21)[N+](=O)[O-] (stereo not given) | > 100 µM (inactive) | > 100 µM (inactive) | > 100 µM (inactive) | > 100 µM (inactive) | > 100 µM | > 100 µM (inactive) | > 100 µM (inactive) | > 100 µM (inactive) | > 100 µM (inactive) | > 100 µM (inactive) | > 100 µM (inactive) | > 100 µM (inactive) | > 100 µM (inactive) |  | > 100 µM (inactive) | > 100 µM (inactive) | > 100 µM (inactive) | > 100 µM (inactive) | > 100 µM (inactive) | > 100 µM (inactive) |
| CSC1=C(c2ccc(Cl)cc2)SC(N2CCCCC2)N1c1ccc([N+](=O)[O-])cc1 (stereo not given) | 19 µM (inactive) | 25.2 µM (inactive) | 40.6 µM (inactive) | 23 µM (inactive) | 26.1 µM | 29.8 µM (inactive) | 30.6 µM (inactive) | 26 µM (inactive) | 23.3 µM (inactive) | 28 µM (inactive) | 32.1 µM (inactive) | 14.6 µM (inactive) | 30.9 µM (inactive) |  | 28.8 µM (inactive) | 26.2 µM (inactive) | 42.2 µM (inactive) | 24.8 µM (inactive) | 32.7 µM (inactive) | 41.3 µM (inactive) |
| CN1C2=C(CC3=C1CC(C)(C)CC3=O)C(=O)CC(C)(C)C2 | > 100 µM (inactive) | > 100 µM (inactive) | > 100 µM (inactive) |  | > 100 µM | > 100 µM (inactive) | > 100 µM (inactive) | > 100 µM (inactive) | > 100 µM (inactive) | > 100 µM (inactive) | > 100 µM (inactive) | > 100 µM (inactive) | > 100 µM (inactive) | > 100 µM (inactive) | > 100 µM (inactive) | > 100 µM (inactive) | > 100 µM (inactive) |  | > 100 µM (inactive) | > 100 µM (inactive) |
| C=C(Cl)C(C)(Cl)CCC(Cl)C(C)(C)Cl (stereo not given) | > 100 µM (inactive) | > 100 µM (inactive) | > 100 µM (inactive) | 35.1 µM (inactive) |  | 47.5 µM (inactive) | 18.2 µM (inactive) | 23.9 µM (inactive) | 53.7 µM (inactive) | > 100 µM (inactive) |  | 50.5 µM (inactive) | > 100 µM (inactive) | 51.6 µM (inactive) | > 100 µM (inactive) | 41.9 µM (inactive) | > 100 µM (inactive) | 29.4 µM (inactive) | 37.6 µM (inactive) | 89.9 µM (inactive) |
| O=C(Nc1nnc(-c2c(Cl)c(Cl)c(Cl)c(Cl)c2-c2nc3cc(C(=O)c4ccccc4)ccc3[nH]2)o1)c1ccc(Cl)cc1 | 18.2 µM (inactive) | 30.7 µM (inactive) | 25.9 µM (inactive) | 36.5 µM (inactive) | 22.5 µM | 29.2 µM (inactive) | 34.8 µM (inactive) | 13.6 µM (inactive) | 24.7 µM (inactive) | > 100 µM (inactive) | 39.2 µM (inactive) | 12.2 µM (inactive) | 40.2 µM (inactive) | 17.9 µM (inactive) | 34 µM (inactive) | 47.8 µM (inactive) | 51.9 µM (inactive) | 36.8 µM (inactive) | 41.7 µM (inactive) |  |
| CSC1=C(C(=O)Nc2ccccc2)C(N)=NC1=O | 56.2 µM (inactive) |  | 77.1 µM (inactive) | > 100 µM (inactive) | > 100 µM |  | > 100 µM (inactive) | > 100 µM (inactive) | > 100 µM (inactive) |  | > 100 µM (inactive) | > 100 µM (inactive) | > 100 µM (inactive) | > 100 µM (inactive) | > 100 µM (inactive) | > 100 µM (inactive) | > 100 µM (inactive) | > 100 µM (inactive) | 17.1 µM (inactive) | > 100 µM (inactive) |
| O=C1C=C(NCCOCCO)C(=O)c2c(O)ccc(O)c21 | > 100 µM (inactive) | 27.2 µM (inactive) |  | 22.5 µM (inactive) | 22.9 µM | 36.7 µM (inactive) | 15.6 µM (inactive) | 26.1 µM (inactive) | 18 µM (inactive) | > 100 µM (inactive) | 28.2 µM (inactive) | 13.2 µM (inactive) | 33.4 µM (inactive) |  | 32.4 µM (inactive) | 61.7 µM (inactive) | > 100 µM (inactive) | 20.8 µM (inactive) | 59.8 µM (inactive) | 31.8 µM (inactive) |
| COc1ccc(S(=O)(=O)N2C(=O)CCC2C(=O)NN)cc1 (stereo not given) | > 100 µM (inactive) | > 100 µM (inactive) | > 100 µM (inactive) | > 100 µM (inactive) | > 100 µM | > 100 µM (inactive) | > 100 µM (inactive) | > 100 µM (inactive) | > 100 µM (inactive) | > 100 µM (inactive) | > 100 µM (inactive) | > 100 µM (inactive) | > 100 µM (inactive) | > 100 µM (inactive) | > 100 µM (inactive) | > 100 µM (inactive) | > 100 µM (inactive) | > 100 µM (inactive) | > 100 µM (inactive) |  |
| COC1=CC(=O)[C@]2(C)[C@H](C1=O)C(C)[C@H]2c1ccc(OC)cc1 (stereo not given in full) | > 100 µM (inactive) | > 100 µM (inactive) | > 100 µM (inactive) |  | > 100 µM | > 100 µM (inactive) | > 100 µM (inactive) | > 100 µM (inactive) | > 100 µM (inactive) | > 100 µM (inactive) | > 100 µM (inactive) | > 100 µM (inactive) | > 100 µM (inactive) |  | > 100 µM (inactive) | > 100 µM (inactive) | > 100 µM (inactive) | 91.6 µM (inactive) | 82 µM (inactive) | > 100 µM (inactive) |
| CC1CC(=O)c2c(ccc3c2C(=O)c2cccc(O)c2C3=O)C1 (stereo not given) | 14 µM (inactive) |  | 14.6 µM (inactive) | 5.08 µM (inactive) | 9.14 µM | > 10 µM (inactive) | 4.47 µM (inactive) | 2.13 µM (inactive) | 12.4 µM (inactive) | 20.6 µM (inactive) | 2.56 µM (inactive) | 2.31 µM (inactive) | 19.3 µM (inactive) |  | 12.2 µM (inactive) | 10.4 µM (inactive) | > 10 µM (inactive) | 5.89 µM (inactive) | 11.5 µM (inactive) | 10.4 µM (inactive) |
| CCCCNC(=S)Nn1c(-c2ccccc2)nc2ccccc2c1=O | > 100 µM (inactive) | > 100 µM (inactive) |  | > 100 µM (inactive) | > 100 µM | > 100 µM (inactive) | 74.1 µM (inactive) | 49.9 µM (inactive) | > 100 µM (inactive) | > 100 µM (inactive) | > 100 µM (inactive) | > 100 µM (inactive) | > 100 µM (inactive) | > 100 µM (inactive) |  | 41.7 µM (inactive) | > 100 µM (inactive) | > 100 µM (inactive) | 76.9 µM (inactive) | > 100 µM (inactive) |
| COc1cccc2c1C(=N)c1c(O)c3c(c(O)c1C2=O)C[C@@](O)(C(C)=O)C[C@@H]3OC1CC(N)C(O)C(C)O1 (stereo not given in full) | 3 µM (inactive) | 0.244 µM (active) | 1.42 µM (inactive) | 0.00745 µM (active) | 3.27 µM | 1.38 µM (inactive) | 0.00638 µM (active) | 0.000132 µM (active) | 1.83 µM (inactive) | 0.000445 µM (active) |  | 0.196 µM (active) | 0.43 µM (active) | 0.00771 µM (active) | 0.00811 µM (active) | 0.00764 µM (active) | 1.31 µM (inactive) |  | 0.00369 µM (active) | 0.00938 µM (active) |

From ChEMBL document CHEMBL1201862, “PubChem BioAssay data set” (2004)
